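Grown in 96-well plates, cells were treated for 48 hours with each compound at five concentrations. Insufficient inhibition: endpoint recorded as highest concentration tested. Here, GI50 denotes the concentration required for 50% inhibition of growth. TGI: total growth inhibition.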 A value given as a limit tells only on which side of the number the result lay.

In the first assay the test system is TK-10 renal. Put plainly: inhibition of tumour cell growth, NCI panel, 48 h.
As to `CCCCCCCCC/C=C1\CCC(CN2CCOCC2)C1=O` (stereo not given), the TGI turned out to be 5.56 µM.

`CCCCCCN(CCCCCC)C(=O)Cc1c2n(c3ccccc13)Cc1ccccc1-2` registered a TGI of more than 100 µM.

In the case of `CC(=O)[C@@]12O[C@@H]1CC1C3CCC4=CC(O)CCC4(C)C3CCC12C` (stereo not given in full), the GI50 was 15.9 µM and the TGI turned out to be 56.9 µM.

As to `C/C(=N\NC(=S)NC(CCC(=O)O)C(=O)O)c1ccccn1` (stereo not given), the TGI was more than 100 µM.

`Brc1ccccc1C1SCc2nc3ccccc3n21` (stereo not given): the TGI is 49.3 µM.

With `CCOC(=O)C(=C=C=C(c1ccccc1)c1ccccc1)C(=O)OCC`, the TGI came to 31.3 µM.

As to `Cn1c2ccccc2c2cc(-c3ccccc3)c3c(c21)C(=O)c1ccccc1C3=O`, the TGI was more than 100 µM.

Turning to `c1ccc(COc2cccc3ccc[n+](Cc4ccccc4)c23)cc1`, the TGI came out at 94.6 µM.

The compound `CN(C)c1ccc(/C=C(\NC(=O)c2ccccc2)c2nc3ncncc3[nH]2)cc1` registered a TGI of more than 100 µM.

`CC1=CC(O)(c2ccc(-c3ccccc3Cl)cc2)OC1=O` (stereo not given) displayed a TGI of more than 100 µM.

Compound `CCOC(=O)CC(=O)ON(C)C(C)=O` yielded a TGI of more than 100 µM.

In turn, `CCc1cc(Cc2cc(CC)c(NC(=O)C(=O)Cc3ccccn3)c(CC)c2Cl)c(Cl)c(CC)c1NC(=O)C(=O)Cc1ccccn1` gave a TGI of more than 100 µM.

In turn, `CC(C)OP(=O)(OC(C)C)C(=NCCN=C(NNc1ccc([N+](=O)[O-])cc1)P(=O)(OC(C)C)OC(C)C)NNc1ccc([N+](=O)[O-])cc1` displayed a TGI of more than 100 µM.

`COC(OC)C(C)CC(=O)N(C)C` (stereo not given) yielded a TGI of more than 100 µM.

Consider `O=S1(=O)OCCOS(=O)(=O)C1Br`, for which the TGI is more than 100 µM.

In turn, `CC(C)=Cc1cc(C(=O)Nc2ccc(Cl)c(Cl)c2)nc(N)n1` had a TGI of more than 100 µM.

Turning to `C#CC1(O)CCC2C3CCc4cc(Oc5nc(F)nc(-c6c7ccccc7c7sc8ccccc8n67)n5)ccc4C3CC[C@@]21C` (stereo not given in full), the TGI was more than 100 µM.

`CC(=O)/C(=C\c1cccc([N+](=O)[O-])c1)C(=O)Nc1ccccc1C` yielded a TGI of more than 100 µM.

In turn, `Clc1ccc(C(c2ccc(Cl)cc2)c2ccccn2)cc1` had a TGI of 45.3 µM.

Another assay has as its system NCI-H460 lung. Put plainly: inhibition of tumour cell growth, NCI panel, 48 h.
Compound `CCOC(=O)NC(=O)c1cn(CCCO)c(=O)[nH]c1=O` displayed a TGI of more than 100 µM.

Consider `Cc1cc(-c2ccc3nc(C4CCOCC4)n(CCOC(F)(F)F)c3c2)cn(C)c1=O`, for which the GI50 is 1.06 µM.

`CC(=O)OC1COC(n2ccc3cc(Br)c([N+](=O)[O-])cc32)C(OC(C)=O)C1OC(C)=O` (stereo not given) yielded a TGI of 69.5 µM.

`COc1cc(C2c3cc4c(cc3OC(C)(O)C2C)OCO4)cc(OC)c1OC` (stereo not given) gave a TGI of more than 100 µM.

Compound `Cn1cnc([N+](=O)[O-])c1Sc1nc2ccccc2[nH]1` registered a TGI of 64.9 µM.

Regarding `O=C1c2cc3c(cc2-c2c1c1ccc(F)cc1c(=O)n2CCCNCCO)OCO3`, the GI50 was 0.0219 µM and the TGI was determined as 0.204 µM.

For `COc1ccc([C@H]2[C@@H](F)C(=O)N2c2cc(OC)c(OC)c(OC)c2)cc1F`, the GI50 was 0.356 µM and the TGI came to 91.1 µM.

As for `CCCCCCCCC/C=C1\CCC(CN2CCOCC2)C1=O` (stereo not given), the TGI came to 21.1 µM.

Turning to `CCCCCCN(CCCCCC)C(=O)Cc1c2n(c3ccccc13)Cc1ccccc1-2`, the TGI is more than 100 µM.

For the compound `CC(=O)[C@@]12O[C@@H]1CC1C3CCC4=CC(O)CCC4(C)C3CCC12C` (stereo not given in full), the GI50 is 70.8 µM and the TGI is more than 100 µM.

On to `C/C(=N\NC(=S)NC(CCC(=O)O)C(=O)O)c1ccccn1` (stereo not given), for which the TGI is more than 100 µM.

`Brc1ccccc1C1SCc2nc3ccccc3n21` (stereo not given) registered a TGI of 44.5 µM.

The compound `O=C(/C=C\c1ccc(Cl)c(Cl)c1)c1ccc(Cl)cc1Cl` displayed a TGI of 54.8 µM.

With `CCOC(=O)C(=C=C=C(c1ccccc1)c1ccccc1)C(=O)OCC`, the TGI is 46.5 µM.

As to `c1ccc(COc2cccc3ccc[n+](Cc4ccccc4)c23)cc1`, the TGI is 35.7 µM.

`CC1=CC(O)(c2ccc(-c3ccccc3Cl)cc2)OC1=O` (stereo not given) registered a TGI of more than 100 µM.

On to `CCOC(=O)CC(=O)ON(C)C(C)=O`, for which the TGI was more than 100 µM.

Take `CCc1cc(Cc2cc(CC)c(NC(=O)C(=O)Cc3ccccn3)c(CC)c2Cl)c(Cl)c(CC)c1NC(=O)C(=O)Cc1ccccn1`: the TGI is more than 100 µM.

Consider `CC(C)OP(=O)(OC(C)C)C(=NCCN=C(NNc1ccc([N+](=O)[O-])cc1)P(=O)(OC(C)C)OC(C)C)NNc1ccc([N+](=O)[O-])cc1`, for which the TGI was more than 100 µM.

In turn, `COC(OC)C(C)CC(=O)N(C)C` (stereo not given) registered a TGI of more than 100 µM.

For the compound `CC(C)=Cc1cc(C(=O)Nc2ccc(Cl)c(Cl)c2)nc(N)n1`, the TGI was more than 100 µM.

Consider `C#CC1(O)CCC2C3CCc4cc(Oc5nc(F)nc(-c6c7ccccc7c7sc8ccccc8n67)n5)ccc4C3CC[C@@]21C` (stereo not given in full), for which the TGI is more than 100 µM.

The compound `CC(=O)/C(=C\c1cccc([N+](=O)[O-])c1)C(=O)Nc1ccccc1C` displayed a TGI of more than 100 µM.

As for `Clc1ccc(C(c2ccc(Cl)cc2)c2ccccn2)cc1`, the TGI was found to be 34.2 µM.

The next assay relates to HL-60(TB) leukemia. Nature of the assay: inhibition of tumour cell growth, NCI panel, 48 h.
For `CCN1c2ccccc2C(C(SC)S(=O)(=O)c2ccc(C)cc2)c2c1[nH]c(=O)n(C)c2=O` (stereo not given), the TGI is more than 100 µM.

Consider `COc1ccc(S(=O)(=O)NNS(C)(=O)=O)cc1`, for which the TGI was more than 100 µM.

With `Cc1cc(-c2ccc3nc(C4CCOCC4)n(CCOC(F)(F)F)c3c2)cn(C)c1=O`, the GI50 was 0.0247 µM and the TGI turned out to be 0.197 µM.

`COc1cc(C2c3cc4c(cc3OC(C)(O)C2C)OCO4)cc(OC)c1OC` (stereo not given) displayed a TGI of 0.53 µM.

The compound `Cn1cnc([N+](=O)[O-])c1Sc1nc2ccccc2[nH]1` gave a TGI of more than 100 µM.

Turning to `O=C1c2cc3c(cc2-c2c1c1ccc(F)cc1c(=O)n2CCCNCCO)OCO3`, the GI50 was 0.0291 µM and the TGI was found to be 0.198 µM.

In the case of `COc1ccc([C@H]2[C@@H](F)C(=O)N2c2cc(OC)c(OC)c(OC)c2)cc1F`, the GI50 was 0.0805 µM and the TGI was 0.399 µM.

For the compound `CCCCCCCCC/C=C1\CCC(CN2CCOCC2)C1=O` (stereo not given), the TGI is 4.38 µM.

On to `CCCCCCN(CCCCCC)C(=O)Cc1c2n(c3ccccc13)Cc1ccccc1-2`, for which the TGI was 46.4 µM.

As for `CC(=O)[C@@]12O[C@@H]1CC1C3CCC4=CC(O)CCC4(C)C3CCC12C` (stereo not given in full), the GI50 is more than 100 µM and the TGI is more than 100 µM.

`C/C(=N\NC(=S)NC(CCC(=O)O)C(=O)O)c1ccccn1` (stereo not given) had a TGI of more than 100 µM.

In turn, `Brc1ccccc1C1SCc2nc3ccccc3n21` (stereo not given) returned a TGI of 34.1 µM.

`O=C(/C=C\c1ccc(Cl)c(Cl)c1)c1ccc(Cl)cc1Cl`: the GI50 is 3.46 µM and the TGI was determined as 23.3 µM.

Values taken from PubChem BioAssay (NCI).
